Target: human TrkA receptor (Homo sapiens (Human), UniProt P04629)
Experiment: TrkA functional activity, DiscoverX PathHunter assay
Format: cell-based
Conditions: U2OS cells expressing human TrkA-PK, Shc1-EA and p75NTR; compound 1 h, then NGF at ~80% of maximal response for 3 h; luminescence
Procedure: TrkA functional activity was measured using a DiscoverX PathHunter assay. In this assay, U2OS cells express the human TrkA receptor as a fusion with the weakly complementing fragment of B-galactosidase, which DiscoverX calls “Prolink (PK)”; additionally, Shc1 is fused with a larger fragment, which is called “Enzyme Acceptor (EA)”. Activation of the TrkA receptor, upon NGF addition, results in the kinase domain being phosphorylated, resulting in subsequent recruitment of Shc1-EA protein. That recruitment results in an active B-galactosidase enzyme that is detected by addition of a chemiluminescent substrate. The human p75^NTR protein was also expressed as a co-receptor for NGF.
All reagents were purchased from DiscoverX, except for the receptor agonists (NGF, BDNF, NT3) which were purchased from Peprotech. Cells were expanded and frozen into cryovials, and stored in the vapor phase of liquid nitrogen, and thawed immediately before use. Thawed cells were added to a 384-well plate at 7500 cells/well, and allowed to incubate overnight. Compound at various concentrations was added the following morning and allowed to incubate on cells for 1 h. Then, NGF was added at a concentration sufficient to elicit ˜80% of a maximal response and allowed to incubate for 3 h at ambient temperature. DiscoverX PathHunter detection reagent was then added and the plate was further incubated for 1 h in the dark. The plate was then read via luminescence on the Perkin Elmer Envision.

Sequence of human TrkA receptor (P04629 33-796): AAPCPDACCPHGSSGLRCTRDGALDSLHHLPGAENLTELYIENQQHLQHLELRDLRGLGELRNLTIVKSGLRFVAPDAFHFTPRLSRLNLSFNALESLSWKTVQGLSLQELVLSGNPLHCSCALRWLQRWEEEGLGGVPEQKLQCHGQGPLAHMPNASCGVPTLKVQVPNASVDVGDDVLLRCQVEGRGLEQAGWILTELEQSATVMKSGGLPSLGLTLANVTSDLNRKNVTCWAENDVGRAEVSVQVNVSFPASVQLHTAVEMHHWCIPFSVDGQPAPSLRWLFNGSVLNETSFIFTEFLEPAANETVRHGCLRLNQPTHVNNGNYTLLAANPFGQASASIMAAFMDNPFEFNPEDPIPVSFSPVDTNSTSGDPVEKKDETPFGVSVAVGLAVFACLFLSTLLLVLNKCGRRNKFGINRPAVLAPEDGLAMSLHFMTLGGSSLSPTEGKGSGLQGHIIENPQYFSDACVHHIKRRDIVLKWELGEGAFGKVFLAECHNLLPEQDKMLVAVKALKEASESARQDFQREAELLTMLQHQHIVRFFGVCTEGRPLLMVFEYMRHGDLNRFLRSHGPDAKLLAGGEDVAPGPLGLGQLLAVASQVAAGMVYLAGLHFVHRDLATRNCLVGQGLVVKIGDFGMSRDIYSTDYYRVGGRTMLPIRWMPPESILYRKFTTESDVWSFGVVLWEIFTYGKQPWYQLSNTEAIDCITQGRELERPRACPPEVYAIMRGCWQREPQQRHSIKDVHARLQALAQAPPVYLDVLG

| SMILES | IC50 [nM] |
| --- | --- |
| Cn1ccc(-c2cc(C(=O)Nc3c4nccc(CN5C(=O)CNC5=O)c4nn3-c3ccccc3)c(F)cc2C(F)(F)F)n1 [Compound 99, N-(7-((2,5-dioxoimidazolidin-1-yl)methyl)-2-phenyl-2H-pyrazolo[4,3-b]pyridin-3-yl)-2-fluoro-5-(1-methyl-1H-pyrazol-3-yl)-4-(trifluoromethyl)benzamide] | 0.88 |
| CC(N)c1ccc2c(NC(=O)c3cc(-c4ncccn4)c(C(F)(F)F)cc3F)n(-c3ccccc3)nc2c1 (single isomer, unassigned) [Compound 69, (R or S)-N-{6-[1-aminoethyl]-2-phenyl-2H-indazol-3-yl}-2-fluoro-5-pyrimidin-2-yl-4-(trifluoromethyl)benzamide] | 7.1 |
| O=C(Nc1c2cc(CO)ncc2nn1-c1ccccc1)c1cc(-c2ncccn2)c(C(F)(F)F)cc1F [Compound 11, 2-Fluoro-N-(5-(hydroxymethyl)-2-phenyl-2H-pyrazolo[3,4-c]pyridin-3-yl)-5-(pyrimidin-2-yl)-4-(trifluoromethyl)benzamide] | 20 |
| O=C(Nc1c2ccc(C(O)C(F)(F)F)cc2nn1-c1ccccc1)c1cc(-c2ncccn2)c(C(F)(F)F)cc1F (single isomer, unassigned) [Compound 52, (R or S)-2-Fluoro-N-{2-phenyl-6-[(1S)-2,2,2-trifluoro-1-hydroxyethyl]-2H-indazol-3-yl}-5-pyrimidin-2-yl-4-(trifluoromethyl)benzamide, isomers A and B] | 2.8 |
| O=C(Nc1c2cc(C3(O)CC3)ccc2nn1-c1ccccc1)c1cc(-c2ncccn2)c(C(F)(F)F)cc1F [Compound 50, 2-Fluoro-N-(5-(1-hydroxycyclopropyl)-2-phenyl-2H-indazol-3-yl)-5-(pyrimidin-2-yl)-4-(trifluoromethyl)benzamide] | 1.6 |
| Cc1cc(-n2nc3ccc(CO)cc3c2NC(=O)c2cc(-c3ncccn3)c(C(F)(F)F)cc2F)n[nH]1 [Compound 15, 2-fluoro-N-[5-(hydroxymethyl)-2-(5-methyl-1H-pyrazol-3-yl)-2H-indazol-3-yl]-5-pyrimidin-2-yl-4-(trifluoromethyl)benzamide] | 74 |
| CC(N)c1ccc2c(NC(=O)c3cc(-c4ncccn4)c(C(F)(F)F)cc3F)n(-c3ccccc3)nc2c1 (single isomer, unassigned) [Compound 70, (R or S)-N-{6-[1-aminoethyl]-2-phenyl-2H-indazol-3-yl}-2-fluoro-5-pyrimidin-2-yl-4-(trifluoromethyl)benzamide] | 14 |
| O=C(Nc1c2ccc(CCO)cc2nn1-c1ccccc1)c1cc(-c2ncccn2)c(C(F)(F)F)cc1F [Compound 60, 2-Fluoro-N-(6-(2-hydroxyethyl)-2-phenyl-2H-indazol-3-yl)-5-(pyrimidin-2-yl)-4-(trifluoromethyl)benzamide] | 2.2 |
| O=C(Nc1c2ccc(C3CCCN3)cc2nn1-c1ccccc1)c1cc(-c2ncccn2)c(C(F)(F)F)cc1F (single isomer, unassigned) [Compound 103, (R and S)-2-Fluoro-N-(2-phenyl-6-(pyrrolidin-2-yl)-2H-indazol-3-yl)-5-(pyrimidin-2-yl)-4-(trifluoromethyl)benzamide, isomers A and B] | 29 |
| NC(=O)c1cnc2c(NC(=O)c3cc(-c4ccccn4)c(C(F)(F)F)cc3Cl)n(-c3ccccc3)nc2c1 [Compound 85, 3-({[2-chloro-5-pyridin-2-yl-4-(trifluoromethyl)phenyl]carbonyl}amino)-2-phenyl-2H-pyrazolo[4,3-b]pyridine-6-carboxamide] | 3.3 |
| NC(=O)c1ccc2nn(-c3ccccc3)c(NC(=O)c3cc(-c4ncccn4)c(C(F)(F)F)cc3F)c2n1 [Compound 80, 3-({[2-fluoro-5-pyrimidin-2-yl-4-(trifluoromethyl)phenyl]carbonyl}amino)-2-phenyl-2H-pyrazolo[4,3-b]pyridine-5-carboxamide] | 32 |
| COc1ccc2nn(-c3ccccc3)c(NC(=O)c3cc(-c4ncccn4)c(C(F)(F)F)cc3F)c2n1 [Compound 8, 2-fluoro-N-(5-methoxy-2-phenyl-2H-pyrazolo[4,3-b]pyridin-3-yl)-5-pyrimidin-2-yl-4-(trifluoromethyl)benzamide] | 18 |
| Cn1ccc(-c2cc(C(=O)Nc3c4ncc(C(N)=O)cc4nn3-c3ccccc3)c(F)cc2C(F)(F)F)n1 [Compound 87, 3-({[2-fluoro-5-(1-methyl-1H-pyrazol-3-yl)-4-(trifluoromethyl)phenyl]carbonyl}amino)-2-phenyl-2H-pyrazolo[4,3-b]pyridine-6-carboxamide] | 0.63 |
| NC(=O)c1cc2nn(-c3ccccc3)c(NC(=O)c3cc(-c4ncccn4)c(C(F)(F)F)cc3F)c2cn1 [Compound 76, 3-(2-Fluoro-5-(pyrimidin-2-yl)-4-(trifluoromethyl)benzamido)-2-phenyl-2H-pyrazolo[4,3-c]pyridine-6-carboxamide] | 36 |
| CC(O)c1ccc2nn(-c3ccccc3)c(NC(=O)c3ccc(C(F)(F)F)c(-c4ccn(C)n4)c3)c2c1 (single isomer, unassigned; isomer b) [Compound 24, (R or S)-N-[5-(1-hydroxyethyl)-2-phenyl-2H-indazol-3-yl]-3-(1-methyl-1H-pyrazol-3-yl)-4-(trifluoromethyl)benzamide, isomer B] | 2.4 |
| Cn1ccc(-c2cc(C(=O)Nc3c4ccc(CNCCO)cc4nn3-c3ccccc3)c(F)cc2C(F)(F)F)n1 [Compound 72, 2-fluoro-N-(6-{[(2-hydroxyethyl)amino]methyl}-2-phenyl-2H-indazol-3-yl)-5-(1-methyl-1H-pyrazol-3-yl)-4-(trifluoromethyl)benzamide] | 6.5 |
| O=C(Nc1c2ncccc2nn1-c1cccc(CO)c1)c1cc(-c2ncccn2)c(C(F)(F)F)cc1F [Compound 3, 2-Fluoro-N-(2-(3-(hydroxymethyl)phenyl)-2H-pyrazolo[4,3-b]pyridin-3-yl)-5-(pyrimidin-2-yl)-4-(trifluoromethyl)benzamide] | 122 |
| CC(O)c1ccc2nn(-c3ccccc3)c(NC(=O)c3ccc(C(F)(F)F)c(-c4ccn(C)n4)c3)c2c1 (single isomer, unassigned; isomer a) [Compound 23, (R or S)-N-[5-(1-hydroxyethyl)-2-phenyl-2H-indazol-3-yl]-3-(1-methyl-1H-pyrazol-3-yl)-4-(trifluoromethyl)benzamide, isomer A] | 3.7 |
| Cn1ccc(-c2cc(C(=O)Nc3c4ncc(C(C)(C)O)cc4nn3-c3ccccc3)ccc2C(F)(F)F)n1 [Compound 48, N-[6-(1-hydroxy-1-methylethyl)-2-phenyl-2H-pyrazolo[4,3-b]pyridin-3-yl]-3-(1-methyl-1H-pyrazol-3-yl)-4-(trifluoromethyl)benzamide] | 5.2 |
| O=C(Nc1c2cc(CO)ccc2nn1-c1ccccc1)c1cc(-c2ncccn2)c(C(F)(F)F)cc1F [Compound 12, 2-fluoro-N-[5-(hydroxymethyl)-2-phenyl-2H-indazol-3-yl]-5-pyrimidin-2-yl-4-(trifluoromethyl)benzamide] | 2.6 |
| Cn1ccc(-c2cc(C(=O)Nc3c4ncc(C(N)=O)cc4nn3-c3ccccc3)ccc2C(F)(F)F)n1 [Compound 86, 3-({[3-(1-methyl-1H-pyrazol-3-yl)-4-(trifluoromethyl)phenyl]carbonyl}amino)-2-phenyl-2H-pyrazolo[4,3-b]pyridine-6-carboxamide] | 2.8 |
| O=C(Nc1c2ccc(C(O)C(F)(F)F)cc2nn1-c1ccccc1)c1cc(-c2ncccn2)c(C(F)(F)F)cc1F (single isomer, unassigned) [Compound 53, (R or S)-2-Fluoro-N-{2-phenyl-6-[(1S)-2,2,2-trifluoro-1-hydroxyethyl]-2H-indazol-3-yl}-5-pyrimidin-2-yl-4-(trifluoromethyl)benzamide, isomers A and B] | 29 |
| CC(C)(O)c1cnc2nn(-c3ccccc3)c(NC(=O)c3cc(-c4ncccn4)c(C(F)(F)F)cc3F)c2c1 [Compound 45, 2-fluoro-N-[5-(1-hydroxy-1-methylethyl)-2-phenyl-2H-pyrazolo[3,4-b]pyridin-3-yl]-5-pyrimidin-2-yl-4-(trifluoromethyl)benzamide] | 12 |
| CC(O)c1cnc2c(NC(=O)c3cc(-c4ncccn4)c(C(F)(F)F)cc3Cl)n(-c3ccccc3)nc2c1 (single isomer, unassigned; isomer b) [Compound 36, (R or S)-2-chloro-N-[6-(1-hydroxyethyl)-2-phenyl-2H-pyrazolo[4,3-b]pyridin-3-yl]-5-pyrimidin-2-yl-4-(trifluoromethyl)benzamide, isomer B] | 2.4 |
| Cn1ccc(-c2cc(C(=O)Nc3c4cc(C5(O)CC5)ccc4nn3-c3ccccc3)ccc2C(F)(F)F)n1 [Compound 51, N-[5-(1-hydroxycyclopropyl)-2-phenyl-2H-indazol-3-yl]-3-(1-methyl-1H-pyrazol-3-yl)-4-(trifluoromethyl)benzamide] | 6.4 |
| O=C(Nc1c2cc(CCO)ccc2nn1-c1ccccc1)c1cc(-c2ncccn2)c(C(F)(F)F)cc1F [Compound 61, 2-fluoro-N-[5-(2-hydroxyethyl)-2-phenyl-2H-indazol-3-yl]-5-pyrimidin-2-yl-4-(trifluoromethyl)benzamide] | 3.1 |
| Cn1ccc(-c2cc(C(=O)Nc3c4ccc(C(N)=O)cc4nn3-c3ccccc3)ccc2C(F)(F)F)n1 [Compound 82, 3-({[3-(1-methyl-1H-pyrazol-3-yl)-4-(trifluoromethyl)phenyl]carbonyl}amino)-2-phenyl-2H-indazole-6-carboxamide] | 2.7 |
| O=C(Nc1c2[nH]c(=O)ccc2nn1-c1ccccc1)c1cc(-c2ncccn2)c(C(F)(F)F)cc1F [Compound 2, 2-Fluoro-N-(5-oxo-2-phenyl-4,5-dihydro-2H-pyrazolo[4,3-b]pyridin-3-yl)-5-(pyrimidin-2-yl)-4-(trifluoromethyl)benzamide] | 6 |
| NC(=O)c1cccc2c(NC(=O)c3cc(-c4ncccn4)c(C(F)(F)F)cc3F)n(-c3ccccc3)nc12 [Compound 89, 3-({[2-fluoro-5-pyrimidin-2-yl-4-(trifluoromethyl)phenyl]carbonyl}amino)-2-phenyl-2H-indazole-7-carboxamide] | 11 |

Reference: patent US9862707B2, “TrkA kinase inhibitors, compositions and methods thereof” (Merck Sharp & Dohme Corp., priority 2014, dated 2018)
